Experimental data taken from patent publication US20240425523A1, “Compounds for the Degradation of EGFR Kinase” (Beigene Switzerland GMBH, priority 2023, published 2024).

Columns and labels:
Type in all cases: cell-based
[1] = molecular target: T1, EGFR L858R (BaF3-L858R cells) (Homo sapiens, UniProt P00533, L858R); assay: Cell degradation of EGFR, HTRF assay, BaF3-L858R cells; conditions: 16 h treatment; for DC50: EGFR degradation; for Dmax: maximum percentage of degradation
T1 construct: host or cells: BaF3
Summary of the method: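 BaF3-L858R cells treated 16 h at 37° C, 5% CO2 with compound (top 10 uM final, 5-fold, 8 doses, 0.1% DMSO). DC50 from four-parameter fit; Dmax is maximum percent degradation.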

[2] = molecular target: T2, EGFR-L858R/C797S (H1975-clone #8 cells) (Homo sapiens, UniProt P00533, C797S/L858R); assay: Cell degradation of EGFR, HTRF assay, H1975-clone#8 (L858R/C797S) cells; conditions: 16 h treatment; for DC50: EGFR degradation; for Dmax: maximum percentage of degradation
T2 construct: expressed in transfected cells; host or cells: H1975 (endogenous EGFR knocked out, clone #8)

[3] = molecular target: T3, p-EGFR L858R (BaF3-L858R cells) (Homo sapiens, UniProt P00533, L858R); assay: Cell p-EGFR inhibition assay, HTRF, BaF3-L858R cells; conditions: 16 h treatment; for Imax (%): maximum percentage of pEGFR inhibition; for IC50: pEGFR inhibition
T3 construct: host or cells: BaF3
Protocol: BaF3-L858R (abbv. L858R) cell were purchased from Kangyuan Bochuang Biotechnology (Beijing) Co., Ltd.
(§1) H1975-#23 and BaF3-L858R cells are treated with compounds diluted in 0.1% DMSO cell culture medium on day 2, incubate for 16 h, 37° C., 5% CO2. the final concentration of compounds in all assay is start with 10 uM, 5-fold dilution, total 8 doses were included.
(§2) After 16 h treatment, for H1975-#23 cells, add 50 ul HTRF 1× lysis buffer to each well; for BaF3-L858R cells, add 20 μl 4× lysis buffer to each well; seal the plate and incubate 1 hour at room temperature on a plate shaker; Once the cells are lysed, 16 μL of cell lysate are transferred to a PE 384-well HTRF detection plate; 4 μL of pre-mixed HTRF antibodies are added to each well; Cover the plate with a plate sealer, spin 1000 rpm for 1 min, Incubate overnight at room temperature; Read on BMG PheraStar with HTRF protocol (337 nm-665 nm-620 nm).
(§3) High control=Cell group with added DMSO and without compound, indicating microplate readings without p-EGFR inhibited.
(§4) Imax is the maximum percentage of inhibition.
(§5) The IC50 value of a compound can be obtained by fitting the following equation.
(§6) Wherein, X and Y are known values, and IC50, Hillslope, Top and Bottom are the parameters obtained by fitting with software. […] The experimental data were fitted by calculating and analyzing with Dotmatics data analysis software.

[4] = molecular target: p-EGFR Del19/C797S (H1975-clone #23 cells) (Homo sapiens, UniProt P00533); assay: Cell p-EGFR inhibition assay, HTRF, H1975-clone#23 (DEL19/C797S) cells; conditions: 16 h treatment; for Imax (%): maximum percentage of pEGFR inhibition; for IC50: pEGFR inhibition
Protocol: The EGFR over-expressed cells then underwent knockout, in which the EGFR targeting sgRNA was designed to only target the endogenous EGFR copies and preserve the exogenous EGFR copies. Followed by the knockout, the edited H1975 cells were seeded in 96 well plates at the concentration of 1 cell/well, cultured for about 2 weeks to allow single clones formation. The formed clones were screened by DNA sequencing and whole exon sequencing analysis for the desired edition.
as §1, §2, §3, §4, §5, §6

Row | DC50 [1] [nM] | Dmax [1] [%] | DC50 [2] [nM] | Dmax [2] [%] | Imax (%) [3] [%] | IC50 [3] [nM] | Imax (%) [4] [%] | IC50 [4] [nM] | Structure (SMILES)
1 | 2.1 | 85.7 | 1.87 | 94.6 | 98.42 | < 0.128 | 102.89 | 1.79 | Cc1cc2cc(n1)-c1c(C)nn(C)c1OC[C@H]1CC[C@H](C1)CN1/C(=N/C2=O)Nc2ccc(N3C[C@@H](C)N(C4CCN(c5cc(F)c([C@H]6CCC(=O)NC6=O)c(F)c5)CC4)C[C@@H]3C)cc21 [Example 200, (R)-3-(4-(4-((2R,5S)-2,5-dimethyl-4-((7^1R,7^3S,E)-1^1,1^3,2^6-trimethyl-3-oxo-5^2,5^3-dihydro-1^1H,5^1H-9-oxa-4-aza-5(2,1)-benzo[d]imidazola-2(2,4)-pyridina-1(4,5)-pyrazola-7(1,3)-cyclopentanacyclononaphane-5^6-yl)piperazin-1-yl)piperidin-1-yl)-2,6-difluorophenyl)piperidine-2,6-dione]
2 | 3.68 | 87.8 | 4.18 | 65.5 | 92.5 | 16.9 | 100.6 | 1.2 | Cc1cc2cc(n1)-c1cnn(C)c1OC[C@H]1CCC(C1)CN1/C(=N/C2=O)Nc2ccc(N3CCN(CCc4cc(F)c(C5CCC(=O)NC5=O)nc4C)CC3)cc21 (stereo partly drawn) [Example 78, 3-(5-(2-(4-((7^1R,7^3S,E)-1^1,2^6-dimethyl-3-oxo-5^2,5^3-dihydro-1^1H,5^1H-9-oxa-4-aza-5(2,1)-benzo[d]imidazola-2(2,4)-pyridina-1(4,5)-pyrazola-7(1,3)-cyclopentanacyclononaphane-5^6-yl)piperazin-1-yl)ethyl)-3-fluoro-6-methylpyridin-2-yl)piperidine-2,6-dione]
3 | 2.04 | 83.3 | 1.49 | 73.7 | 99.16 | 13.3 | 102.92 | 1.44 | Cc1cc2cc(n1)-c1cnn(C)c1OC[C@H]1CCC(C1)CN1/C(=N/C2=O)Nc2ccc(N3CC4(CCN(C5CN(c6cc(F)c([C@H]7CCC(=O)NC7=O)c(F)c6)C5)CC4)C3)cc21 [Example 126, (R)-3-(4-(3-(2-((7^1R,7^3S,E)-1^1,2^6-dimethyl-3-oxo-5^2,5^3-dihydro-1^1H,5^1H-9-oxa-4-aza-5(2,1)-benzo[d]imidazola-2(2,4)-pyridina-1(4,5)-pyrazola-7(1,3)-cyclopentanacyclononaphane-5^6-yl)-2,7-diazaspiro[3.5]nonan-7-yl)azetidin-1-yl)-2,6-difluorophenyl)piperidine-2,6-dione]
4 | 3.49 | 70.5 | 2.69 | 77.3 | 94.6 | 17.1 | 99 | 0.7 | Cc1cc2cc(n1)-c1cnn(C)c1OC[C@H]1CCC(C1)CN1/C(=N/C2=O)Nc2ccc(N3CCC(N4CCC(Oc5cc(F)c([C@H]6CCC(=O)NC6=O)c(F)c5)CC4)CC3)cc21 [Example 113, (R)-3-(4-((1′-((7^1R,7^3S,E)-1^1,2^6-dimethyl-3-oxo-5^2,5^3-dihydro-1^1H,5^1H-9-oxa-4-aza-5(2,1)-benzo[d]imidazola-2(2,4)-pyridina-1(4,5)-pyrazola-7(1,3)-cyclopentanacyclononaphane-5^6-yl)-[1,4′-bipiperidin]-4-yl)oxy)-2,6-difluorophenyl)piperidine-2,6-dione]
5 | 8.77 | 90.5 | 7.29 | 85 | 91.27 | 72.1 | 100.12 | 2.16 | COC[C@H]1CN(c2ccc3c(c2)N2C[C@H]4CC[C@@H](COc5c(c(C)nn5C)-c5cc(cc(C)n5)C(=O)/N=C/2N3)C4)CCN1C1CCN(c2cc(F)c([C@H]3CCC(=O)NC3=O)c(F)c2)CC1 [Example 150, (R)-3-(2,6-difluoro-4-(4-((R)-2-(methoxymethyl)-4-((7S,7^3R,E)-1^1,1^3,2^6-trimethyl-3-oxo-5^2,5^3-dihydro-1^1H,5^1H-9-oxa-4-aza-5(2,1)-benzo[d]imidazola-2(2,4)-pyridina-1(4,5)-pyrazola-7(1,3)-cyclopentanacyclononaphane-5^6-yl)piperazin-1-yl)piperidin-1-yl)phenyl)piperidine-2,6-dione]

Continued, compound first:

Row | Structure (SMILES) | DC50 [1] [nM] | Dmax [1] [%] | DC50 [2] [nM] | Dmax [2] [%] | Imax (%) [3] [%] | IC50 [3] [nM] | Imax (%) [4] [%] | IC50 [4] [nM]
6 | COC[C@H]1CN(c2ccc3c(c2)N2C[C@@H]4CC[C@H](COc5c(cnn5C)-c5cc(cc(C)n5)C(=O)/N=C/2N3)C4)CCN1C1CCN(c2ccc(C3CCC(=O)NC3=O)nc2C)CC1 (stereo partly drawn) [Example 65, 3-(5-(4-((R)-4-((7^1R,7^3S,E)-1^1,2^6-dimethyl-3-oxo-5^2,5^3-dihydro-1^1H,5^1H-9-oxa-4-aza-5(2,1)-benzo[d]imidazola-2(2,4)-pyridina-1(4,5)-pyrazola-7(1,3)-cyclopentanacyclononaphane-5^6-yl)-2-(methoxymethyl)piperazin-1-yl)piperidin-1-yl)-6-methylpyridin-2-yl)piperidine-2,6-dione] | 0.94 | 88.7 | 0.87 | 78.6 | 103 | 2.8 | 101.5 | 0.3
7 | Cc1cc2cc(n1)-c1cnn(C)c1OC[C@H]1CC[C@H](C1)CN1/C(=N/C2=O)Nc2ccc(N3CCN(C4CCN(c5ccc(OC6CCC(=O)NC6=O)cc5)CC4)CC3)cc21 (stereo partly drawn) [Example 57, 3-(4-(4-(4-((7^1R,7^3S,E)-1^1,2^6-dimethyl-3-oxo-5^2,5^3-dihydro-1^1H,5^1H-9-oxa-4-aza-5(2,1)-benzo[d]imidazola-2(2,4)-pyridina-1(4,5)-pyrazola-7(1,3)-cyclopentanacyclononaphane-5^6-yl)piperazin-1-yl)piperidin-1-yl)phenoxy)piperidine-2,6-dione] | 3.84 | 82.6 | 3.14 | 58.5 | 101 | 10.5 | 97.9 | 1.2
8 | COC[C@H]1CN(c2ccc3c(c2)N2C[C@@H]4CC[C@H](COc5c(c(C)nn5C)-c5cc(cc(C)n5)C(=O)/N=C/2N3)C4)CCN1C1CCN(c2c(C)cc(C3CCC(=O)NC3=O)nc2C)CC1 (stereo partly drawn) [Example 141, 3-(5-(4-((R)-2-(methoxymethyl)-4-((7^1R,7^3S,E)-1^1,1^3,2^6-trimethyl-3-oxo-5^2,5^3-dihydro-1^1H,5^1H-9-oxa-4-aza-5(2,1)-benzo[d]imidazola-2(2,4)-pyridina-1(4,5)-pyrazola-7(1,3)-cyclopentanacyclononaphane-5^6-yl)piperazin-1-yl)piperidin-1-yl)-4,6-dimethylpyridin-2-yl)piperidine-2,6-dione] | 1.13 | 87.5 | 0.804 | 66.1 | 98.22 | 7.7 | 100.38 | 0.825
9 | COCC1(N2CCN(c3ccc4c(c3)N3CC5CC[C@H](COc6c(cnn6C)-c6cc(cc(C)n6)C(=O)/N=C/3N4)C5)CC2)CCN(c2ccc(C3CCC(=O)NC3=O)nc2C)CC1 (stereo partly drawn) [Example 106, 3-(5-(4-(4-((7^1R,7^3S,E)-1^1,2^6-dimethyl-3-oxo-5^2,5^3-dihydro-1^1H,5^1H-9-oxa-4-aza-5(2,1)-benzo[d]imidazola-2(2,4)-pyridina-1(4,5)-pyrazola-7(1,3)-cyclopentanacyclononaphane-5^6-yl)piperazin-1-yl)-4-(methoxymethyl)piperidin-1-yl)-6-methylpyridin-2-yl)piperidine-2,6-dione] | 6.69 | 82.5 | 2.45 | 83.3 | 97.6 | 16 | 99.8 | 0.8
